The nature of series [1]: Metabolic stability in cryopreserved hepatocytes, human. The note with it: human, cryopreserved hepatocytes; read-out: Hepatocyte stability t1/2. It is filed as in vitro ADME. The protocol:
page 34: UHPLC-MS/MS System: Chromatographic separation was performed on an Acquity UPLC BEH […] with 6500+ Qtrap system. […] software suite. The UPLC column was maintained at 55 °C. Mobile phase A was 0.1% formic acid in MilliQ H2O and Mobile phase B was 0.1% formic acid in acetonitrile. The flow rate was 0.9 […] The mass spectrometer was operated in positive-ion mode with electrospray ionization. MRM transition m/z […] plasma stability and plasma protein binding. The following MS parameters were employed for analyte measurements: ion spray voltage 5 kV, temperature 550 °C, gas 1 and gas 2 were 60, entrance potential (EP): 10 V, declustering potential (DP): 50 V, collision energy (CE): 27 V, and collision cell exit potential (CXP): 16 V. Metabolic Stability in mouse and human cryopreserved hepatocytes. 10 mM test compounds were provided by Compound Sample Group. Diluted 10 mM test compounds and 30 mM positive control compounds (7-ethoxycoumarin) to 1 mM and 3 mM with DMSO in 96-well plates. Diluted 1 mM test compounds and 3 mM positive control compounds to 100 μM and 300 μM dosing solutions with ACN. Cryopreserved cells were thawed, isolated and suspended in Incubation Medium, then diluted with pre-warmed Incubation Medium to 0.5 × 10^6cells/mL. Added 198 μL of pre-warmed cell suspensions in 96 -well plates. Transferred 125 μL of stop solution (acetonitrile containing 200 ng/mL tolbutamide and 200 ng/mL labetalol as internal standards) in a set of pre- labeled 96-well plates. Spike d 2 μL dosing solution to each well of 96 -well plates in duplicates. For T0 Samples, mix ed to achieve a homogenous suspension for about 1 min, then immediately transferred 25 μL of each sample into well containing 125 μL of ice -cold stop solution followed by mixing. Incubated all plates at 37°C in a 95% humidified incubator at 5% CO 2 to start the reactions page 35: with constant shaking at about 600 rpm. At 15, 30, 60 and 90 min, mixed samples and then transferred 25 μL of each sample at each time point to well containing 125 μL of ice -cold stop solution followed by mixing. Medium Control (MC) sample plates (labeled as T0-MC and T90- MC) were prepared at T0 and T90 by adding the same components to each well except cell suspensions. At each corresponding time point, stopped the reactions by removing the plates from incubator and mixing with 125 μL of ice-cold stop solution. Vortexed the plates immediately on a plate shaker at 500 rpm for 10 minutes. Then, centrifuge d all sample plates at 3220 x g for 20 min at 4°C. After centrifugation, 80 μL/well of supernatant in the sample plates were transferred to another set of pre-labeled 96-well plates which containing 240 μL of ultra pure water according to the plate map. Analytical plates were sealed and stored at 4°C until LC-MS/MS analysis. Thawing Medium: Williams' Medium E containing 5% fetal bovine serum and 30% Perc oll solution and other supplements. Incubation Medium: Williams' Medium E (no phenol red) containing 2 mM L-Glutamine and 25 mM HEPES. Stop Solution: Acetonitrile containing 200 ng/mL tolbutamide and labetalol as internal standards. Dilution Solution: Ultra-pure water. The remaining percents of test articles after incubation were calculated by the follow equations: Equation ( 6): Use equation of first order kinetics [NT] […] The data was […] concatenated with a reversed decoy database for evaluating False Discovery Rate (FDR). […]

The test system of a further series is AN3 CA. Nature of the series: cells. Further details: Oncolines panel cell viability, ATPlite 1Step luminescence, duplicate 9-point dose response, IC50. The note with it: Homo sapiens, AN3-CA; 72 h viability; read-out: SJ3149. The method, then:
(§1) Cell viability assays were performed as previously described. In brief, cells were seeded in a 384-well plate at an optimized density. The starting cell number was determined after 24 h incubation by adding ATPlite 1Step (Perkin Elmer, Groningen, the Netherlands) to each well and recording luminescence on an Envision multimode reader (Perkin Elmer, Waltham, MA). After the addition of a duplicate 9-point dilution series of SJ3149, cells were incubated for another 72 h, followed by cell counting using ATPlite 1Step. The dilution series ranged from 3.2 to 31,600 nM or was diluted 100-fold for the most sensitive cell lines to ideally capture the complete dose–response curve. Percentage viability was determined at each compound concentration by relating the observed signal to a vehicle-treated control, that is, medium containing 0.4% (v/v) DMSO. Compound IC50 values were calculated by fitting a 4-parameter logistic curve to the percentage viability values using IDBS XLfit5 (IDBS, Guildford, UK). The IC50 was limited to the maximum tested compound concentration when the IC50 exceeded the maximum tested concentration. […] To evaluate the compound’s effect and potential therapeutic application across a diverse range of human cancers, we profiled SJ3149 in Oncolines® panel consisting of 115 human cancer cell lines, of which 86 were solid tumor and 29 hematologic cell lines, including MOLM-13. Effect on cell viability was monitored using ATPLite™ (Perkin Elmer), which measures intracellular ATP content as an indirect readout of cell number, like CellTiter Glo.

The test system of another series is AsPC-1. Nature of the series: cells. On the set-up: Oncolines panel cell viability, ATPlite 1Step luminescence, duplicate 9-point dose response, IC50. The note with it: Homo sapiens, ASPC1; 72 h viability; read-out: SJ3149. The method, then:
as §1

The subject of a further series is DU 145. Nature of the series: cells. On the set-up: Oncolines panel cell viability, ATPlite 1Step luminescence, duplicate 9-point dose response, IC50. The note with it: Homo sapiens, DU-145; 72 h viability; read-out: SJ3149. The protocol: as §1
Another series relates to ES-2. The series is described as follows: cells. Further details: Oncolines panel cell viability, ATPlite 1Step luminescence, duplicate 9-point dose response, IC50. The note with it: Homo sapiens, ES-2; 72 h viability; read-out: SJ3149. The method, then: as §1
The subject of another series is NCI-H460. The series is described as follows: cells. On the set-up: Oncolines panel cell viability, ATPlite 1Step luminescence, duplicate 9-point dose response, IC50. The note with it: Homo sapiens, NCI-H460; 72 h viability; read-out: SJ3149. The method, then: as §1
For a further series, the system named is PF-382. Nature of the series: cells. On the set-up: Oncolines panel cell viability, ATPlite 1Step luminescence, duplicate 9-point dose response, IC50. The note with it: Homo sapiens, PF-382; 72 h viability; read-out: SJ3149. The method, then: as §1
Another series has as its system PFSK-1. The series is described as follows: cells. Further details: Oncolines panel cell viability, ATPlite 1Step luminescence, duplicate 9-point dose response, IC50. The note with it: Homo sapiens, PFSK-1; 72 h viability; read-out: SJ3149. The method, then: as §1
A further series relates to U-118 MG. The series is described as follows: cells. On the set-up: Oncolines panel cell viability, ATPlite 1Step luminescence, duplicate 9-point dose response, IC50. The note with it: Homo sapiens, U-118-MG; 72 h viability; read-out: SJ3149. The protocol:
as §1

From article PMC10791743, “Selective CK1α degraders exert antiproliferative activity against a broad range of human cancer cell lines” (Nature Communications, 2024) come the findings set out here.

Each structure is given as a SMILES string.

In the case of `O=C1CCC(N2Cc3cc(Nc4noc5ccccc45)ccc3C2=O)C(=O)N1` (stereo not drawn) [SJ3149], in series [1], the half-life at 1 µM was greater than 3.6 h. Moreover, the IC50 in the series with AN3 CA, in the series with AsPC-1, in the series with DU 145, in the series on ES-2, in the series with NCI-H460 and with PF-382 was greater than 31.6 µM in each case. Further, the IC50 in the series with PFSK-1 and in the series on U-118 MG was greater than 31.6 µM in each case.
